US20130330396A1, “METHODS FOR THE TREATMENT OF THROAT DISCOMFORT” (INTERCONTINENTAL GREAT BRANDS LLC, priority 2009, published 2013)

Experiments:
[1] = Inventors' observations on bitterness and throat versus mouth cooling; conditions: in vivo
Description: The present inventors have observed that N-ethyl-2,2-diisopropylbutanamide is a particularly effective for throat soothing. […] The structures of N-ethyl-2,2-diisopropylbutanamide and N,2,3-trimethyl-2-isopropylbutanamide, which differ only by two methylene (—CH2—) groups, are shown below.

[2] = Sensory evaluation of cooling agent-containing fondants (location, intensity, onset speed of cooling sensation); type: in vivo; conditions: for Long-lasting mouth cooling / Long-lasting throat cooling / Predominant mouth cooling / Predominant throat cooling: in fondant at 0.03, 0.06 and 0.09 weight percent, approx. 0.5 gram dissolved in the mouth, six evaluators
Protocol: The cooling agents N-ethyl-2,2-diisopropylbutanamide and N,2,3-trimethyl-2-isopropylbutanamide were evaluated in fondant at concentrations of 0.03, 0.06, and 0.09 weight percent. The fondant base consisted of 85 weight percent 6X fondant sugar and 15 weight percent deionized water.
Sensory evaluations of the cooling agent-containing fondants were conducted by six evaluators, who observed the location, intensity, and onset speed of cooling sensation as they tasted approximately 0.5 gram of fondant by allowing it to dissolve in the mouth.

[3] = menthol-containing lozenge; cited from earlier work

SMILES: CCNC(=O)C(CC)(C(C)C)C(C)C [Example 1, N-ethyl-2,2-diisopropylbutanamide]
- Location of cooling effect (throat versus mouth) [1]: selectivity for throat cooling over mouth cooling
- Long-lasting mouth cooling [2]: No
- Long-lasting throat cooling [2]: Yes
- Predominant mouth cooling [2]: No
- Predominant throat cooling [2]: Yes
- Throat cooling relative to N,2,3-trimethyl-2-isopropylbutanamide ([2]; when used in a candy system): superior and unexpected throat cooling

SMILES: CNC(=O)C(C)(C(C)C)C(C)C [Example 2, N,2,3-trimethyl-2-isopropylbutanamide]
- Location of cooling effect (throat versus mouth) [1]: primarily in the mouth rather than the throat
- Long-lasting mouth cooling [2]: No
- Long-lasting throat cooling [2]: No
- Predominant mouth cooling [2]: Yes
- Predominant throat cooling [2]: No

SMILES: CC1CCC(C(C)C)C(O)C1 (stereo not drawn) [menthol]
- Location of physiological cooling effect (throat versus mouth) [3]: felt primarily in the mouth rather than the throat
